Results reported in patent US4254285A, “1-Hydroxymethyl-1-1-oxo prostane derivatives of the E and F series” (American Cyanamid Company, priority 1979, dated 1981).
Like-named read-outs stand apart in the source and are kept apart here.

Tests used:
[1] = test system: indomethacin-induced intestinal ulcers; type: in vivo, rat
Protocol: (§1) Male Wistar rats (Royal Hart, New Hampton, N.Y.), weighing 190-210 g are distributed among control and treatment groups (5 rats/group) and housed one rat per cage. During the 52 hour test period, the rats are permitted free access to food and drinking water for the first 33 hours but are fasted overnight prior to sacrifice. Indomethacin is suspended (4 mg/ml) in a 1.5% starch-phosphate buffer solution (SPBS). 1,9-dioxo-11α,16-dihydroxy-16-methyl-1-hydroxymethyl-13-transprostene is dissolved at 10 mg/ml in ethanol and then diluted in SPBS to 0.1 mg/ml or to a lower concentration as required. The indomethacin suspension is injected subcutaneously (10 mg/kg) and the prostaglandin suspension is given by gavage (0.5 mg/kg or less) b.i.d. on day 0 and 1. Rats receive only one dose of prostaglandin and indomethacin on day 2 and 6 hours later are killed with chloroform. The stomachs are dissected, opened along the greater curvature, and rinsed briefly in tap water. They are then spread, mucosal surface facing upward and pinned onto uniform size corks (2.5 inch diameter) individually numbered on the back. The identification number for each stomach is unknown to the investigator and the stomachs are randomly graded according to the following scheme:
Intestines are also removed and examined for the presence of ulcers, which are graded according to the scheme outlined below.
1--Mucosa thin, petechial hemorrhage
2--"Blow-outs", when intestine inflated with air
3--Few ulcers. Gut more fragile than normal, tears along line of mesentery attachements when removed
4--Many large perforating lesions. Adhesions. Gut hemorrhagic and very fragile. Tears readily and cannot be removed intact. Graded in situ.
(§2) ^a Treatment is B.I.D. on days 0 and 1, and once on day 2, six hours
(§3) prior to sacrifice for scoring.

[2] = test system: indomethacin-induced gastric ulcers; type: in vivo, rat
Protocol: as §1
1--Petechial hemorrhage, or pin-point ulcers
2--One or two small ulcers or hemorrhagic erosions
3--Many areas of hemorrhage erosion or ulcers, a few large
4--Massive areas of hemorrhagic erosion or many ulcers, mainly large
as §2, §3

[3] = type: in vivo, rat
Protocol: as §1, §2, §3

gastric secretion = test: Gastric anti-secretory test, Heidenhain pouch, histamine-stimulated; type: in vivo, dog; conditions: oral 100 mg/Kg
Protocol: Unanesthetized mongrel dogs weighing 10-15 Kg are used. The animals have a surgically prepared denervated (Heidenhain) pouch which drains by gravity through a titanium cannula. These animals are trained to stand quietly in a Pavlov support. Gastric secretion is stimulated at the lowest rate giving stable secretion (25-40% of maximal) with histamine acid phosphate, 30-50 μg/Kg/hr. Under such stimulation, a stable gastric secretory output can generally be maintained for a period of at least 3 hours.
Gastric juice is collected continuously during secretory studies and pooled into 15-minute collections. Determination of collection volume, pH and titratable acidity is performed. Acid is determined by titrating an aliquot of gastric sample with 0.1 N NaOH to pH 7.0 using an automatic titrator.
Drugs are administered on a background of submaximal gastric secretory stimulation and the results compared with control secretory studies without the use of drug. Depending upon the duration of action of a particular drug, it may be possible for a single drug-secretory study to serve as its own control. The route of drug administration is oral administration into the main stomach.
For example, one of the PGE compounds of this invention 1,9-dioxo-11α,16-dihydroxy-16-methyl-1-hydroxymethyl-5-trans prostadiene on administration into the stomach of one of these dogs at a dose of […] gives the results shown hereinbelow in Table D. The data in Table D is the average of four tests in one dog.

[4] = .02 mg/kg P.O. with indomethacin 10 mg/kg subcut.
[5] = .1 mg/kg P.O. with indomethacin 10 mg/kg subcut.
[6] = .5 mg/kg P.O. with indomethacin 10 mg/kg subcut.
[7] = 0 min., average of four tests in one dog

SMILES: CCCCC(C)(O)CC=CC1C(O)CC(=O)C1CCCCCCC(=O)CO (stereo not drawn)
- Intestinal Ulcer Score (Mean ± S.E.M.) [1, 4]: 3.5 ± 0.2
- Intestinal Ulcer Score (Mean ± S.E.M.) [1, 5]: 2.7 ± 0.2
- Intestinal Ulcer Score (Mean ± S.E.M.) [1, 6]: 2.0 ± 0.4
- Gastric Ulcer Score (Mean ± S.E.M.) [2, 4]: 1.9 ± 0.4
- Gastric Ulcer Score (Mean ± S.E.M.) [2, 5]: 1.7 ± 0.3
- Gastric Ulcer Score (Mean ± S.E.M.) [2, 6]: 2.1 ± 0.4
- Hematocrit (Mean ± S.E.M.) [3, 4]: 35.6 ± 1.9
- Hematocrit (Mean ± S.E.M.) [3, 5]: 41.1 ± 2.4
- Hematocrit (Mean ± S.E.M.) [3, 6]: 40.0 ± 1.4

SMILES: CCCCC(C)(O)CC=CC1C(O)CC(=O)C1CC=CCCCC(=O)CO (stereo not drawn) [1,9-dioxo-11α,16-dihydroxy-16-methyl-1-hydroxymethyl-5-cis-13-trans-prostadiene]
- Acid (gastric secretion; [7]): 0.43 meg/15 min.
- Volume of gastric juice (gastric secretion; [7]): 3.4 mL
- Acid (gastric secretion; 15 min.): 0.35 meg/15 min.
- Volume of gastric juice (gastric secretion; 15 min.): 2.6 mL
- Acid (gastric secretion; 30 min.): 0.22 meg/15 min.
- Volume of gastric juice (gastric secretion; 30 min.): 1.5 mL
- Acid (gastric secretion; 45 min.): 0.20 meg/15 min.
- Volume of gastric juice (gastric secretion; 45 min.): 1.3 mL
- Acid (gastric secretion; 60 min.): 0.09 meg/15 min.
- Volume of gastric juice (gastric secretion; 60 min.): 0.7 mL
- Acid (gastric secretion; 75 min.): 0.13 meg/15 min.
- Volume of gastric juice (gastric secretion; 75 min.): 0.9 mL
- Acid (gastric secretion; 90 min.): 0.21 meg/15 min.
- Volume of gastric juice (gastric secretion; 90 min.): 1.5 mL
- Acid (gastric secretion; 105 min.): 0.27 meg/15 min.
- Volume of gastric juice (gastric secretion; 105 min.): 1.9 mL
- Acid (gastric secretion; 120 min.): 0.40 meg/15 min.
- Volume of gastric juice (gastric secretion; 120 min.): 2.7 mL
